Measurements published in patent US4201786A, “Water soluble pesticidal quaternary ammonium salt compounds” (Union Carbide Corporation, priority 1977, dated 1980).

Legend:
[1] = Water solubility (Table I); assay type: physicochemical; settings: 25° C.
[2] = tested on: bean aphid (Aphis fabae Scop.); test: Bean aphid foliage spray test; assay type: in vivo; design: key: A: Excellent control; B: Partial control; C: No control; settings: 500 ppm, 24 hour
Method: (§1) Suspensions of the test compounds were prepared by dissolving one gram of compound in 50 milliliters of acetone in which had been dissolved 0.1 gram (10 percent of the weight of compound) of an alkylphenoxy polyethoxyethanol surfactant, as an emulsifying or dispersing agent. The resulting solution was mixed into 150 milliliters of water to give roughly 200 milliliters of a suspension containing the compound in finely divided form. The thus-prepared stock suspension contained 0.5 percent by weight of test compound. The test concentrations in parts per million by weight employed in the tests described hereinbelow were obtained by appropriate dilutions of the stock suspension with water. The test procedures were as follows:
Adults and nymphal stages of the bean aphid (Aphis fabae Scop.) reared on potted dwarf nasturtium plants at 65°-70° F. and 50-70 percent relative humidity, constituted the test insects. For testing purposes, the number of aphids per pot was standardized to 100-150 by trimming plants containing excess aphids.
The test compounds were formulated by diluting the stock suspension with water to give a suspension containing 500 parts of test compound per million parts of final formulation.
The potted plants (one pot per compound tested) infested with 100-150 aphids, were placed on a revolving turntable and sprayed with 100-110 milliliters of test compound formulation by use of a DeVilbiss spray gun set at 40 psig. air pressure. This application, which lasted 25 seconds, was sufficient to wet the plants to run-off. As a control, 100-110 milliliters of a water-acetone-emulsifier solution containing no test compound were also sprayed on infested plants. After spraying, the pots were placed on their sides on a sheet of white standard mimeograph paper which had been previously ruled to facilitate counting. Temperature and humidity in the test room during the 24 hour holding period were 65°-70° F. and 50-70 percent, respectively. Aphids which fell onto the paper and were unable to remain standing after being uprighted were considered dead. Aphids remaining on the plants were observed closely for movement and those which were unable to move the length of the body upon stimulator by prodding were considered dead. Percent mortality was recorded for various concentration levels.
(§2) In these test the pesticidal activity of the compounds against aphid, mite, Southern Armyworm, Mexican Bean Beetle, and house fly was rated as follows: […]

[3] = tested on: two-spotted mite (Tetranychus urticae Koch); test: Mite foliage spray test; assay type: in vivo; design: key: A: Excellent control; B: Partial control; C: No control; settings: 500 ppm, six days
Method: as §1
Adults and nymphal stages of the two-spotted mite (Tetranychus urticae Koch), reared on Tendergreen bean plants at 80±5 percent relative humidity, were the test organisms. Infested leaves from a stock culture were placed on the primary leaves of two bean plants six to eight inches in height, growing in a two- and-a-half inch clay pot. 150-200 mites, a sufficient number for testing, transferred from the excised leaves to the fresh plants in a period of twenty-four hours. Following the twenty-four hour transfer period, the excised leaves were removed from the infested plants. The test compounds were formulated by diluting the stock suspension with water to give a suspension with water to give a suspension containing 500 parts of test compound per million parts of final formulation. The potted plants (one pot per compound) were placed on a revolving turntable and sprayed with 100-110 milliliters of test compound formulation by use of a DeVilbiss spray gun set at 40 psig. air pressure. This application, which lasted for 25 seconds was sufficient to wet the plants to run-off. As a control, 100-110 milliliters of a water solution containing acetone and emulsifier in the same concentrations as the test compound formulation, but containing no test compound, were also sprayed on infested plants. The sprayed plants were held at 80±5 percent relative humidity for six days, after which a mortality count of motile forms was made. Microscopic examination for motile forms was made on the leaves of the test plants. Any individual which was capable of locomotion upon prodding, was considered living.
as §2

[4] = tested on: southern armyworm (Prodenia Eridania, (Cram.)); test: Southern armyworm leaf spray test; assay type: in vivo; design: key: A: Excellent control; B: Partial control; C: No control; settings: 500 ppm, three days
Method: as §1
Larvae of the southern armyworm (Prodenia Eridania, (Cram.), reared on Tendergreen bean plants at a temperature of 80°±5° F. and relative humidity of 50±5 percent, constituted the test insects.
The test compounds were formulated by diluting the stock suspension with water to give a suspension containing 500 parts of test compound per million parts of final formulation. Potted Tendergreen bean plants of standard height and age were placed on a revolving turntable and sprayed with 100-110 milliliters of test compound formulation by use of a DeVilbiss spray gun set at 10 psig. air pressure.
This application which lasted 25 seconds was sufficient to wet plants to run-off. As a control, 100-110 milliliters of a water-acetone-emulsifier solution containing no test compound were also sprayed on infested plants. When dry, the paired leaves were separated and each one was placed in a 9 centimeter Petri dish lined with moistened filter paper. Five randomly selected larvae were introduced into each dish and the dishes were closed. The closed dishes were labeled and held at 80°-85° F. for three days. Although the larvae could easily consume the whole leaf within twenty-four hours, no more food was added. Larvae which were unable to move the length of the body, even upon stimulation by prodding, were considered dead. Percent mortality was recorded for various concentration levels.
as §2

[5] = tested on: Mexican bean beetle (Epilachna varivestis, Muls.); test: Mexican bean beetle leaf spray test; assay type: in vivo; design: key: A: Excellent control; B: Partial control; C: No control; settings: 500 ppm, three days
Method: as §1
Fourth instar larvae of the Mexican bean beetle (Epilachna varivestis, Muls.) reared on Tendergreen bean plants at a temperature of 80°±5° and 50±5 percent relative humidity, were the test insects.
The test compounds were formulated by diluting the stock suspension with water to give a suspension containing 500 parts of test compound per million parts of final formulation. Potted Tendergreen bean plants of standard height and age were placed on a revolving turntable and sprayed with 100-110 milliliters of test compound formulation by use of a DeVilbiss spray gun set at 10 psig air pressure. This application, which lasted 25 seconds was sufficient to wet plants to run-off. As a control, 100-110 milliliters of a water-acetone-emulsifier solution containing no test compound were also sprayed on infested plants. When dry, the paired leaves were separated and each was placed in a 9 centimeter Petri dish lined with moistened filter paper. Five randomly selected larvae were introduced into each dish, and the dishes were closed. The closed dishes were labeled and held at a temperature of 80°±5° F. for three days. Although the larvae could easily consume the leaf within 24 to 48 hours, no more food was added. Larvae which were unable to move the length of the body, even upon stimulation, were considered dead.
as §2

[6] = tested on: house flies (Musca domestica, L.); test: Fly bait test; assay type: in vivo; design: key: A: Excellent control; B: Partial control; C: No control; settings: 500 ppm, bait in 10 percent sugar solution, twenty four hours
Method: as §1
Four to six day old adult house flies (Musca domestica, L.) reared according to the specifications of the Chemical Specialties Manufacturing Association (Blue Book, McNair-Dorland Co., NY., 1954; pages 243-244, 261) under controlled conditions of 80°±5° F. and 50±5 percent relative humidity, were the test insects. The flies were immobilized by anesthetizing with carbon dioxide and twenty five immobilized individuals, males and females, were transferred to a cage consisting of a standard food strainer about five inches in diameter which was inverted over a wrapping-paper-covered surface. The test compounds were formulated by diluting the stock suspension with a 10 percent (by weight) sugar solution to give a suspension containing 500 parts of test compound per million parts of final formulation, by weight. Ten milliliters of the test formulation were added to a souffle cup containing a one inch square of an absorbent cotton pad. This bait cup was introduced and centered on the blotting paper under the food strainer prior to admitting the anesthetized flies. The caged flies were allowed to feed on the bait for twenty four hours, at a temperature of 80°±5° F. and the relative humidity of 50±5 percent.
as §2

[7] = tested on: Bean; test: Phytotoxicity test, bean; assay type: in vivo; design: key: 1: no perceptible injury; 2: intermediate degrees of injury based upon the number and extent to which leaves were injured; 3: intermediate degrees of injury based upon the number and extent to which leaves were injured; 4: intermediate degrees of injury based upon the number and extent to which leaves were injured; 5: the plant was dead; settings: 2500 ppm spray, after ten days
Method: as §1
(§3) Experiments were also conducted to determine the phytotoxicity of representative compositions with respect to healthy fresh plants. Solutions of the compounds were prepared as described above to provide a concentration of 2500 parts per million of the test compound. The test plants were sprayed in accordance with the procedure described above for the Mite Foliage Spray Test so as to deliver approximately 100 milliliters of test solution to the leaves of each plant tested. The sprayed plants and controls were set aside for approximately one hour to allow the solutions to dry and were then placed in the greenhouse. After ten days the plants were visually inspected to determine the extent of foliage injury. A rating of 1 indicates no perceptible injury; 5 indicates the plant was dead and ratings of 2, 3 and 4 indicate intermediate degrees of injury based upon the number and extent to which leaves were injured.

[8] = tested on: Corn; test: Phytotoxicity test, corn; assay type: in vivo; design: key: 1: no perceptible injury; 2: intermediate degrees of injury based upon the number and extent to which leaves were injured; 3: intermediate degrees of injury based upon the number and extent to which leaves were injured; 4: intermediate degrees of injury based upon the number and extent to which leaves were injured; 5: the plant was dead; settings: 2500 ppm spray, after ten days
Method: as §1, §3

[9] = tested on: Tomato; test: Phytotoxicity test, tomato; assay type: in vivo; design: key: 1: no perceptible injury; 2: intermediate degrees of injury based upon the number and extent to which leaves were injured; 3: intermediate degrees of injury based upon the number and extent to which leaves were injured; 4: intermediate degrees of injury based upon the number and extent to which leaves were injured; 5: the plant was dead; settings: 2500 ppm spray, after ten days
Method: as §1, §3

[10] = tested on: Cotton; test: Phytotoxicity test, cotton; assay type: in vivo; design: key: 1: no perceptible injury; 2: intermediate degrees of injury based upon the number and extent to which leaves were injured; 3: intermediate degrees of injury based upon the number and extent to which leaves were injured; 4: intermediate degrees of injury based upon the number and extent to which leaves were injured; 5: the plant was dead; settings: 2500 ppm spray, after ten days
Method: as §1, §3

[11] = tested on: Soybean; test: Phytotoxicity test, soybean; assay type: in vivo; design: key: 1: no perceptible injury; 2: intermediate degrees of injury based upon the number and extent to which leaves were injured; 3: intermediate degrees of injury based upon the number and extent to which leaves were injured; 4: intermediate degrees of injury based upon the number and extent to which leaves were injured; 5: the plant was dead; settings: 2500 ppm spray, after ten days
Method: as §1, §3

SMILES	solubility [1] [mg/mL]	Pesticidal activity, Aphid [2]	Pesticidal activity, Mite [3]	Pesticidal activity, Southern Armyworm [4]	Pesticidal activity, Mexican Bean Beetle [5]	Pesticidal activity, Fly [6]	POST-Emergent Herbicidal (phytotoxicity rating), Bean [7]	POST-Emergent Herbicidal (phytotoxicity rating), Corn [8]	POST-Emergent Herbicidal (phytotoxicity rating), Tomato [9]	POST-Emergent Herbicidal (phytotoxicity rating), Cotton [10]	POST-Emergent Herbicidal (phytotoxicity rating), Soybean [11]
CN(C(=O)C[n+]1ccc(N(C)C)cc1)C(=O)Oc1cccc2c1OC(C)(C)C2	160	A	A	A	A	A	2	1	1	1	2
CN(C(=O)C[N+](C)(C)C)C(=O)Oc1cccc2c1OC(C)(C)C2	570	A	C	A	A	A	1	1	2	2	2
CN(C(=O)C[N+]1(C)CCOCC1)C(=O)Oc1cccc2c1OC(C)(C)C2	140	A	B	A	A	A	–	–	–	–	–
CN(C(=O)C[n+]1ccn(C)c1)C(=O)Oc1cccc2c1OC(C)(C)C2	370	A	A	A	A	A	2	1	1	1	2
CCCCCCCCCCCCCCCCCC[N+](C)(C)CC(=O)N(C)C(=O)Oc1cccc2c1OC(C)(C)C2	> 250	B	C	A	A	A	2	2	1	2	2
CCCCCCCCCCCC[N+](C)(C)CC(=O)N(C)C(=O)Oc1cccc2c1OC(C)(C)C2	> 250	A	A	A	A	A	2	2	2	2	2
CN(C(=O)C[N+]1(C)CCCC1)C(=O)Oc1cccc2c1OC(C)(C)C2	490	A	A	A	A	A	2	1	1	2	2
